# Assay results: patent publication US20120010075A1 (priority 2009, published 2012)
# Tested on: Leptosphaeria nodorum (LEPTNO)
# Experiment: In vitro fungitoxicity of hydrazones with and without copper towards Leptosphaeria nodorum (Example 26)
# Format: cell-based
# Details: Parastagonospora nodorum, 72 h, copper-minus medium; test compound Concn. 0.05 μg/mL; 72 h at 25° C.; read-out: LEPTNO % Inhn. Minus Copper Observed
row,SMILES,inhibition of growth at 0.05 µg/mL [%]
1,O=C(N/N=C/c1ccc(Cl)c(Cl)c1O)c1ccccc1O [Example 362],11.1
2,O=C(N/N=C/c1ccc(Cl)c(Cl)c1O)c1ccccc1C(F)(F)F [Example 363],4.3
3,Cc1cccc(C(=O)N/N=C/c2c(Cl)ccc(Cl)c2O)c1 [Example 365],13.8
4,Cc1ccc(C(=O)N/N=C/c2c(Cl)ccc(Cl)c2O)cc1 [Example 366],14.2
5,O=C(N/N=C/c1c(Cl)ccc(Cl)c1O)c1cccc(F)c1 [Example 367],13.1
6,O=C(N/N=C/c1c(Cl)ccc(Cl)c1O)c1ccc(F)cc1 [Example 368],0
7,O=C(N/N=C/c1c(Cl)ccc(Cl)c1O)c1cccc([N+](=O)[O-])c1 [Example 371],12.6
8,O=C(N/N=C/c1c(Cl)ccc(Cl)c1O)c1ccccc1O [Example 372],15.1
9,O=C(N/N=C/c1c(Cl)ccc(Cl)c1O)c1ccccc1C(F)(F)F [Example 373],0
10,Cc1ccc(C(=O)N/N=C/c2c(Cl)ccc(Cl)c2O)c(O)c1 [Example 374],11.1
11,O=C(N/N=C/c1c(Cl)ccc(Cl)c1O)c1ccc([N+](=O)[O-])cc1 [Example 375],7.2
12,Cc1cccc(C(=O)N/N=C/c2cc(Cl)cc(C(F)(F)F)c2O)c1 [Example 376],13.6
13,Cc1ccc(C(=O)N/N=C/c2cc(Cl)cc(C(F)(F)F)c2O)cc1 [Example 377],29.9
14,O=C(N/N=C/c1cc(Cl)cc(C(F)(F)F)c1O)c1cccc(F)c1 [Example 378],26.3
15,O=C(N/N=C/c1cc(Cl)cc(C(F)(F)F)c1O)c1ccc(F)cc1 [Example 379],26.7
16,O=C(N/N=C/c1cc(Cl)cc(C(F)(F)F)c1O)c1cccc(Cl)c1 [Example 380],36.1
17,O=C(N/N=C/c1cc(Cl)cc(C(F)(F)F)c1O)c1cccc([N+](=O)[O-])c1 [Example 382],19.3
18,O=C(N/N=C/c1cc(Cl)cc(C(F)(F)F)c1O)c1ccc([N+](=O)[O-])cc1 [Example 383],20.3
19,O=C(N/N=C/c1cc(Cl)cc(C(F)(F)F)c1O)c1ccccc1C(F)(F)F [Example 385],5.4
20,Cc1ccc(C(=O)N/N=C/c2cc(Cl)cc(C(F)(F)F)c2O)c(O)c1 [Example 386],41.1
21,Cc1cccc(C(=O)N/N=C/c2ccc(Cl)cc2O)c1 [Example 387],13.5

# Same assay, conditions: copper-plus medium (CuCl2 10 μM); test compound Concn. 0.05 μg/mL; 72 h at 25° C.
row,SMILES,LEPTNO % Inhn. Plus Copper Observed [%]
1,O=C(N/N=C/c1ccc(Cl)c(Cl)c1O)c1ccccc1O [Example 362],97.2
2,O=C(N/N=C/c1ccc(Cl)c(Cl)c1O)c1ccccc1C(F)(F)F [Example 363],94.7
3,Cc1cccc(C(=O)N/N=C/c2c(Cl)ccc(Cl)c2O)c1 [Example 365],95.6
4,Cc1ccc(C(=O)N/N=C/c2c(Cl)ccc(Cl)c2O)cc1 [Example 366],96.6
5,O=C(N/N=C/c1c(Cl)ccc(Cl)c1O)c1cccc(F)c1 [Example 367],97.9
6,O=C(N/N=C/c1c(Cl)ccc(Cl)c1O)c1ccc(F)cc1 [Example 368],96.9
7,O=C(N/N=C/c1c(Cl)ccc(Cl)c1O)c1cccc([N+](=O)[O-])c1 [Example 371],96.1
8,O=C(N/N=C/c1c(Cl)ccc(Cl)c1O)c1ccccc1O [Example 372],97.4
9,O=C(N/N=C/c1c(Cl)ccc(Cl)c1O)c1ccccc1C(F)(F)F [Example 373],97.3
10,Cc1ccc(C(=O)N/N=C/c2c(Cl)ccc(Cl)c2O)c(O)c1 [Example 374],98.2
11,O=C(N/N=C/c1c(Cl)ccc(Cl)c1O)c1ccc([N+](=O)[O-])cc1 [Example 375],98.2
12,Cc1cccc(C(=O)N/N=C/c2cc(Cl)cc(C(F)(F)F)c2O)c1 [Example 376],96.5
13,Cc1ccc(C(=O)N/N=C/c2cc(Cl)cc(C(F)(F)F)c2O)cc1 [Example 377],97.6
14,O=C(N/N=C/c1cc(Cl)cc(C(F)(F)F)c1O)c1cccc(F)c1 [Example 378],98.4
15,O=C(N/N=C/c1cc(Cl)cc(C(F)(F)F)c1O)c1ccc(F)cc1 [Example 379],98.2
16,O=C(N/N=C/c1cc(Cl)cc(C(F)(F)F)c1O)c1cccc(Cl)c1 [Example 380],98.3
17,O=C(N/N=C/c1cc(Cl)cc(C(F)(F)F)c1O)c1cccc([N+](=O)[O-])c1 [Example 382],98.5
18,O=C(N/N=C/c1cc(Cl)cc(C(F)(F)F)c1O)c1ccc([N+](=O)[O-])cc1 [Example 383],95.7
19,O=C(N/N=C/c1cc(Cl)cc(C(F)(F)F)c1O)c1ccccc1C(F)(F)F [Example 385],94.6
20,Cc1ccc(C(=O)N/N=C/c2cc(Cl)cc(C(F)(F)F)c2O)c(O)c1 [Example 386],98.4
21,Cc1cccc(C(=O)N/N=C/c2ccc(Cl)cc2O)c1 [Example 387],96.9

# Tested on: not given
# Experiment: not given
# Details: not given
row,SMILES,melting point
1,O=C(N/N=C/c1ccc(Cl)c(Cl)c1O)c1ccccc1O [Example 362],280 to 282 °C
2,O=C(N/N=C/c1ccc(Cl)c(Cl)c1O)c1ccccc1C(F)(F)F [Example 363],209 to 213 °C
3,Cc1cccc(C(=O)N/N=C/c2c(Cl)ccc(Cl)c2O)c1 [Example 365],214 to 216 °C
4,Cc1ccc(C(=O)N/N=C/c2c(Cl)ccc(Cl)c2O)cc1 [Example 366],267 to 269 °C
5,O=C(N/N=C/c1c(Cl)ccc(Cl)c1O)c1cccc(F)c1 [Example 367],203 to 209 °C
6,O=C(N/N=C/c1c(Cl)ccc(Cl)c1O)c1ccc(F)cc1 [Example 368],264 to 267 °C
7,O=C(N/N=C/c1c(Cl)ccc(Cl)c1O)c1cccc([N+](=O)[O-])c1 [Example 371],273 to 277 °C
8,O=C(N/N=C/c1c(Cl)ccc(Cl)c1O)c1ccccc1O [Example 372],260 to 262 °C
9,O=C(N/N=C/c1c(Cl)ccc(Cl)c1O)c1ccccc1C(F)(F)F [Example 373],221 to 222 °C
10,Cc1ccc(C(=O)N/N=C/c2c(Cl)ccc(Cl)c2O)c(O)c1 [Example 374],248 to 254 °C
11,O=C(N/N=C/c1c(Cl)ccc(Cl)c1O)c1ccc([N+](=O)[O-])cc1 [Example 375],250 to 300 °C (dec.)
12,Cc1cccc(C(=O)N/N=C/c2cc(Cl)cc(C(F)(F)F)c2O)c1 [Example 376],199 to 201 °C
13,Cc1ccc(C(=O)N/N=C/c2cc(Cl)cc(C(F)(F)F)c2O)cc1 [Example 377],276 to 278 °C
14,O=C(N/N=C/c1cc(Cl)cc(C(F)(F)F)c1O)c1cccc(F)c1 [Example 378],219 to 221 °C
15,O=C(N/N=C/c1cc(Cl)cc(C(F)(F)F)c1O)c1ccc(F)cc1 [Example 379],227 to 228 °C
16,O=C(N/N=C/c1cc(Cl)cc(C(F)(F)F)c1O)c1cccc(Cl)c1 [Example 380],228 to 229 °C
17,O=C(N/N=C/c1cc(Cl)cc(C(F)(F)F)c1O)c1cccc([N+](=O)[O-])c1 [Example 382],235 to 237 °C
18,O=C(N/N=C/c1cc(Cl)cc(C(F)(F)F)c1O)c1ccc([N+](=O)[O-])cc1 [Example 383],245 to 247 °C
19,O=C(N/N=C/c1cc(Cl)cc(C(F)(F)F)c1O)c1ccccc1C(F)(F)F [Example 385],203 to 204 °C
20,Cc1ccc(C(=O)N/N=C/c2cc(Cl)cc(C(F)(F)F)c2O)c(O)c1 [Example 386],252 to 254 °C
21,Cc1cccc(C(=O)N/N=C/c2ccc(Cl)cc2O)c1 [Example 387],201 to 203 °C

# Tested on: Phytophthora infestans
# Experiment: not given
# Format: in vivo, Phytophthora infestans on tomato
# Details: hydrazone 50 ppm with 50 μM CuCl2.2H2O, applied 24 h before inoculation; assessed 7 days after inoculation; tomato late blight
row,SMILES,TLB % Control [%]
1,O=C(N/N=C/c1ccc(Cl)c(Cl)c1O)c1ccccc1O [Example 362],97.0
2,O=C(N/N=C/c1ccc(Cl)c(Cl)c1O)c1ccccc1C(F)(F)F [Example 363],92.0
3,Cc1cccc(C(=O)N/N=C/c2c(Cl)ccc(Cl)c2O)c1 [Example 365],95.0
4,Cc1ccc(C(=O)N/N=C/c2c(Cl)ccc(Cl)c2O)cc1 [Example 366],100.0
5,O=C(N/N=C/c1c(Cl)ccc(Cl)c1O)c1cccc(F)c1 [Example 367],95.0
6,O=C(N/N=C/c1c(Cl)ccc(Cl)c1O)c1ccc(F)cc1 [Example 368],98.0
7,O=C(N/N=C/c1c(Cl)ccc(Cl)c1O)c1cccc([N+](=O)[O-])c1 [Example 371],98.0
8,O=C(N/N=C/c1c(Cl)ccc(Cl)c1O)c1ccccc1O [Example 372],98.0
9,O=C(N/N=C/c1c(Cl)ccc(Cl)c1O)c1ccccc1C(F)(F)F [Example 373],90.0
10,Cc1ccc(C(=O)N/N=C/c2c(Cl)ccc(Cl)c2O)c(O)c1 [Example 374],98.0
11,O=C(N/N=C/c1c(Cl)ccc(Cl)c1O)c1ccc([N+](=O)[O-])cc1 [Example 375],90.0
12,Cc1cccc(C(=O)N/N=C/c2cc(Cl)cc(C(F)(F)F)c2O)c1 [Example 376],98.0
13,Cc1ccc(C(=O)N/N=C/c2cc(Cl)cc(C(F)(F)F)c2O)cc1 [Example 377],100.0
14,O=C(N/N=C/c1cc(Cl)cc(C(F)(F)F)c1O)c1cccc(F)c1 [Example 378],97.0
15,O=C(N/N=C/c1cc(Cl)cc(C(F)(F)F)c1O)c1ccc(F)cc1 [Example 379],100.0
16,O=C(N/N=C/c1cc(Cl)cc(C(F)(F)F)c1O)c1cccc(Cl)c1 [Example 380],100.0
17,O=C(N/N=C/c1cc(Cl)cc(C(F)(F)F)c1O)c1cccc([N+](=O)[O-])c1 [Example 382],96.0
18,O=C(N/N=C/c1cc(Cl)cc(C(F)(F)F)c1O)c1ccc([N+](=O)[O-])cc1 [Example 383],100.0
19,O=C(N/N=C/c1cc(Cl)cc(C(F)(F)F)c1O)c1ccccc1C(F)(F)F [Example 385],100.0
20,Cc1ccc(C(=O)N/N=C/c2cc(Cl)cc(C(F)(F)F)c2O)c(O)c1 [Example 386],100.0
21,Cc1cccc(C(=O)N/N=C/c2ccc(Cl)cc2O)c1 [Example 387],87.0
